Assay results published in patent US4212862A, “O,O-Diaryl-1-acyloxy-2,2,2-trichloroethylphosphonates and fungicides based thereon” (priority 1978, dated 1980).

Tested on: potato phytophthora (Phytophthora infestans)
Assay type: in vivo
Settings: 1% aqueous emulsion; 18 °C, 14 days

CN(C)C(=S)SSC(=S)N(C)C [TMTD, tetramethylthiuramdisulphide]
sporulation on treated tubers: individual conidia were observed
